Measurements from patent publication US20070004010A1, “Engineered Enzymes and Their Use for Synthesis of Thioglycosides” (THE UNIVERSITY OF BRITISH COLUMBIA, priority 2002, published 2007).
Positions count from the first letter of the chain named. Names may count otherwise.

Tests used:
Man2A E429A [1] = assay: Competition study for evaluation of relative rates of transfer to S- and O-acceptors (HPLC); format: biochemical, Cellulomonas fimi; conditions: 6 vs pNP-Xyl, 5.5 mM each; donor DNP-Man; pH 6.8, RT; integration of HPLC peaks
Description: Arrows indicate the elution of the O-linked disaccharides, 10 is the S-linked disaccharide.
In order to assess the relative rates of transfer to the oxygen and sulfur nucleophiles in the case of Man 2A E429A we established a competition reaction in which equimolar amounts of pNP-Xyl and its 4-thio analogue 6 were incubated together with DNP-Man as donor and Man2A E429A (FIG. 3). When the concentration of donor was limiting (one third of the concentration of acceptors) we saw exclusive formation of the S-linked disaccharide 10 (a). However, upon addition of further donor to a final concentration twice that of the acceptors the O-linked disaccharides (indicated by arrows) were formed (b).
pNP-Xyl (5.5 mM), 6 (5.5 mM), DNP-Man (3.75 mM) and Man2A E429A (˜1 mg ml.) were incubated in phosphate buffer (50 mM, pH 6.8) for 3 h at RT. After removal of an aliquot DNP-Man was added to a final concentration of 22 mM. After 5 h at RT another aliquot was taken. The aliquots were diluted 1:3 with acetonitrile and centrifuged before applying to the HPLC. HPLC analysis was performed using a Waters 600E multisolvent delivery system with acetonitrile (A)/water (B) as mobile phase (linear gradient: 80% A→60% A in 15 min, flow: 1 ml min^−1), a Waters 2486 Dual λ Absorbance Detector (detection at 280 nm), a TOSO HAAS Amide 80 column (4.6×250 mm) and Millenium 3.20 software.

Man2A E429A [2] = assay: Control reaction with parent sugars as acceptors, DNP-Man as donor; format: biochemical, Cellulomonas fimi; conditions: acceptor for Man2A E429A in the presence of DNP-Man
Abg E171A [3] = target: T1, Abg E171A (Agrobacterium sp., UniProt P12614, E171A); format: biochemical; conditions: acceptor with Abg E171A in the presence of DNP-Glc as donor
T1 sequence (P12614 whole entry E171A, looked up): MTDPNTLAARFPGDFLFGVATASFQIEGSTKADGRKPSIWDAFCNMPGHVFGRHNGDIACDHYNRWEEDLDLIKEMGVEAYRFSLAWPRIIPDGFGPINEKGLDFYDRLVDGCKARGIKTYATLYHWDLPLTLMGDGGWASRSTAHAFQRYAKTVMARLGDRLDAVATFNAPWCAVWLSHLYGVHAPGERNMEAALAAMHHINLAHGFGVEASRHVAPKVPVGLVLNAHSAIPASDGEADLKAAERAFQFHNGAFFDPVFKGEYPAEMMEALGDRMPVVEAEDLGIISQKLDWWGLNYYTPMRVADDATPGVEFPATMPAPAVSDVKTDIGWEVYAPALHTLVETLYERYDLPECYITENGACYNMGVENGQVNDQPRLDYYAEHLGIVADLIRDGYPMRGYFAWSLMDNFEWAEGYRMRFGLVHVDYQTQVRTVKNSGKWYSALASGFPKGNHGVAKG

Cex E127A = target: T2, Cex E127A (Cellulomonas fimi, UniProt P07986, E168A); assay: Functional donors and acceptors for Cex E127A; format: biochemical
T2 sequence (P07986 42-484 E168A): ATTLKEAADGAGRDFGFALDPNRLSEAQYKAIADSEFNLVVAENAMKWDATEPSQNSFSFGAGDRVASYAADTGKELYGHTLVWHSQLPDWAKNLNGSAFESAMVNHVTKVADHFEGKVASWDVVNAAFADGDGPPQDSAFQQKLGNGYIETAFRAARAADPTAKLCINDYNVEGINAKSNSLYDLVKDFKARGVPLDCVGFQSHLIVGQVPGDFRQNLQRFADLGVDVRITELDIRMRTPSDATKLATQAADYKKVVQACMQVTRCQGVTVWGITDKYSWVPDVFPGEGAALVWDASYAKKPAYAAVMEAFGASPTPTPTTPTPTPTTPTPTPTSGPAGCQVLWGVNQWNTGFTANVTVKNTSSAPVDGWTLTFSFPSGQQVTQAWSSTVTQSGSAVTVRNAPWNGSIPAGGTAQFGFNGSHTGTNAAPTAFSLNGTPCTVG

Abg E171A [4] = target: T1, Abg E171A; assay: Kinetic analysis of thioglycoligase reaction (DNP release) with Abg E171A; format: biochemical; conditions: acceptor; donor 2,4-DNP β-D-glucopyranoside (125 mM); 30° C., 50 mM NaPi, 145 mM NaCl, pH 7.1; calculated from the highest observed rate of DNP release
Description: Kinetic analysis was performed with 2,4-DNP β-D-glucopyranoside (125 mM) as donor and with pNP 4-deoxy-4-thio-β-D-glucopyranoside as acceptor at 30° C. in 50 mM NaPi, 145 mM NaCl, pH 7.1 (FIG. 7). It has been shown previously, that the KM− value of the donor is extremely low (<1 μM), and that no donor substrate inhibition is seen. Enzymatic background hydrolysis of the donor together with acceptor substrate inhibition make it difficult to exactly determine K′M and k′cat, but it can be calculated from the highest observed rate of DNP release, that k′cat is higher than 50 min^−1.

[5] = Thioglycoligase function of Cex acid/base mutant; format: biochemical, Cellulomonas fimi; conditions: mutation of the catalytic acid/base residue E127
[6] = Saturation mutagenesis at the acid/base position (E171) of Abg: thioligase functionality; format: biochemical, Agrobacterium sp.

## O=[N+]([O-])c1ccc(O[C@@H]2OC[C@@H](S)[C@H](O)[C@H]2O)cc1 [compound 6, p-Nitrophenyl 4-deoxy-4-thio-β-D-xylopyranoside]
Man2A E429A [1]
  transfer to the thiosugar acceptor faster than transfer to its oxygen analogue: at least 100 fold

## O=[N+]([O-])c1ccc(O[C@@H]2OC[C@@H](O)[C@H](O)[C@H]2O)cc1 [pNP-Xyl, para-nitrophenyl β-D-xylopyranoside]
Man2A E429A [2]
  formation of disaccharide products: only very slowly
Abg E171A [3]
  formation of disaccharides: no formation of disaccharides

## O=[N+]([O-])c1ccc(O[C@@H]2O[C@H](CO)[C@@H](O)[C@H](O)[C@H]2O)cc1 [pNP-Glc, para-nitrophenyl β-D-glucopyranoside]
Man2A E429A [2]
  formation of disaccharide products: only very slowly
Abg E171A [3]
  formation of disaccharides: no formation of disaccharides

## OC[C@H]1O[C@@H](O[C@H]2[C@H](O)[C@@H](O)C(O)O[C@@H]2CO)[C@H](O)[C@@H](O)[C@@H]1S (stereo partly drawn) [4′-deoxy-4′-thio-cellobiose]
Cex E127A
  acceptor function: Functional acceptors

## O=[N+]([O-])c1ccc(O[C@@H]2O[C@H](CO)[C@@H](S)[C@H](O)[C@H]2O)cc1 [compound 3, para-nitrophenyl 4-deoxy-4-thio-β-D-glucopyranoside]
Abg E171A [4]
  k′cat: higher than 50 min^−1
Cex E127A
  acceptor function: Functional acceptors

## O=[N+]([O-])c1ccc(O[C@@H]2O[C@H](CO)[C@@H](O[C@@H]3O[C@H](CO)[C@@H](S)[C@H](O)[C@H]3O)[C@H](O)[C@H]2O)cc1 [pNP 4′-deoxy4′-thio-β-cellobioside, pNP 4′-deoxy-4′-thio-β-cellobioside]
Cex E127A
  acceptor function: Functional acceptors
  donor function: Functional donors

## O=[N+]([O-])c1ccc(O[C@@H]2O[C@H](CO)[C@@H](O[C@@H]3O[C@H](CO)[C@@H](O)[C@H](O)[C@H]3O)[C@H](O)[C@H]2O)c([N+](=O)[O-])c1 [DNP β-cellobioside]
Cex E127A
  donor function: Functional donors

B1: Cex E127A: endo acting retaining β-glycosidase from Cellulomonas fimi (Cex) mutated at the catalytic acid/base residue E127 (protein, UniProt P07986 42-484, looked up, variant E127A)
Exoglucanase/xylanase: T2 sequence (P07986 42-484 E168A)
[5]
  thioglycoligase function: functional thioglycoligase

B2: Abg E171G: acid/base position (E171) mutant of the β-glucosidase from Agrobacterium sp. (Abg) (protein, UniProt P12614 1-459, looked up, variant E171G)
Beta-glucosidase: MTDPNTLAARFPGDFLFGVATASFQIEGSTKADGRKPSIWDAFCNMPGHVFGRHNGDIACDHYNRWEEDLDLIKEMGVEAYRFSLAWPRIIPDGFGPINEKGLDFYDRLVDGCKARGIKTYATLYHWDLPLTLMGDGGWASRSTAHAFQRYAKTVMARLGDRLDAVATFNGPWCAVWLSHLYGVHAPGERNMEAALAAMHHINLAHGFGVEASRHVAPKVPVGLVLNAHSAIPASDGEADLKAAERAFQFHNGAFFDPVFKGEYPAEMMEALGDRMPVVEAEDLGIISQKLDWWGLNYYTPMRVADDATPGVEFPATMPAPAVSDVKTDIGWEVYAPALHTLVETLYERYDLPECYITENGACYNMGVENGQVNDQPRLDYYAEHLGIVADLIRDGYPMRGYFAWSLMDNFEWAEGYRMRFGLVHVDYQTQVRTVKNSGKWYSALASGFPKGNHGVAKG
[6]
  functionality as thioligase: functionality as thioligases

B3: E171I: acid/base position (E171) mutant of Abg (protein, UniProt P12614 1-459, looked up, variant E171I)
Beta-glucosidase: B2 Beta-glucosidase with G171I
[6]
  functionality as thioligase: functionality as thioligases

B4: E171F: acid/base position (E171) mutant of Abg (protein, UniProt P12614 1-459, looked up, variant E171F)
Beta-glucosidase: B2 Beta-glucosidase with G171F
[6]
  functionality as thioligase: functionality as thioligases

B5: E171L: acid/base position (E171) mutant of Abg (protein, UniProt P12614 1-459, looked up, variant E171L)
Beta-glucosidase: B2 Beta-glucosidase with G171L
[6]
  functionality as thioligase: functionality as thioligases

B6: E171M: acid/base position (E171) mutant of Abg (protein, UniProt P12614 1-459, looked up, variant E171M)
Beta-glucosidase: B2 Beta-glucosidase with G171M
[6]
  functionality as thioligase: functionality as thioligases

B7: E171S: acid/base position (E171) mutant of Abg (protein, UniProt P12614 1-459, looked up, variant E171S)
Beta-glucosidase: B2 Beta-glucosidase with G171S
[6]
  functionality as thioligase: functionality as thioligases

B8: Abg E171Q: acid/base position (E171) mutant of the β-glucosidase from Agrobacterium sp. (Abg) (protein, UniProt P12614 1-459, looked up, variant E171Q)
Beta-glucosidase: B2 Beta-glucosidase with G171Q
[6]
  functionality as thioligase: functionality as thioligases

B9: E171T: acid/base position (E171) mutant of Abg (protein, UniProt P12614 1-459, looked up, variant E171T)
Beta-glucosidase: B2 Beta-glucosidase with G171T
[6]
  functionality as thioligase: functionality as thioligases

B10: E171N: acid/base position (E171) mutant of Abg (protein, UniProt P12614 1-459, looked up, variant E171N)
Beta-glucosidase: B2 Beta-glucosidase with G171N
[6]
  functionality as thioligase: functionality as thioligases
